Where two headings read alike, the source gives them in different places.
Key:
[1] = tested on: pro-inflammatory cytokines; test: Secreted cytokines of PBMCs following LPS stimulation (multiplex); assay type: cell-based, mouse
Description: To investigate how DHCA may attenuate IL-6 generation, we tested the effect of DHCA on Toll-like receptor-4 mediated signaling pathways. PBMCs were pretreated with DHCA and stimulated with LPS using the same protocol as during screening. Samples were taken at 0, 30 min, 60 min, 6 h and 16 h following LPS stimulation and cell lysates were subjected to a multiplex ELISA assay. […] Based on evidence that DNA methylation at a single CpG in the human IL-6 promoter region effectively alters IL-6 expression, we next tested whether DHCA can modulate IL-6 gene expression through methylation mechanisms. We treated PBMC cells with DHCA and measured the expression of enzymes essential for DNA methylation/demethylation. […] To investigate how methylation influences IL-6 gene expression, we employed the CpG-free luciferase reporter system. We cloned a ~280 bp CpG rich DNA segment from the mouse IL-6 promoter into a promoterless CpG-free reporter construct and transfected into N2a cells. We found the CpG-rich IL-6 promoter segment presented no inherent promoter activity as reflected by no differences in luciferase activity compared to the control construct (Fig. 2f). […] To test whether DHCA may influence the expression of other pro-inflammatory factors, we measured the level of secreted cytokines following LPS stimulation (Supplementary Fig. 3). […]

[2] = tested on: enzymes involved in de novo methylation and demethylation; test: Expression of de novo methylation/demethylation enzymes in MSN-enriched primary culture; assay type: cell-based, mouse; conditions: MSN-enriched primary cultures
From the text: Stress-induced reduction of Rac1 expression is associated with a repressed chromatin state surrounding the promoter region of Rac1 in the NAc[11]. Since Mal-gluc can cross the BBB, we hypothesized that Mal-gluc may promote Rac1 expression, in part, by modulating chromatin acetylation. We first assessed the effect of Mal-gluc on HDACs that play key roles in chromatin deacetylation. […] Using site directed quantitative chromatin immunoprecipitation (qCHIP), we examined the permissive histone H3 acetylation (AcH3) in Mal-gluc treated MSN-enriched primary cultures.
Total RNA from MSN-enriched cultures or brain NAc was isolated using the RNeasy Mini Kit (Qiagen, Valencia, CA, USA) and reverse transcribed. Gene expression was measured in four replicates by quantitative RT-PCR using Maxima SYBR Green master mix (Fermentas) in ABI Prism 7900HT. Primer sequences are listed in Supplementary Table 2. Mouse hypoxanthine phosphoribosyltransferase (HPRT) expression level was used as an internal control. Data were normalized using the 2^-ΔΔCt method. Levels of target gene mRNAs were expressed relative to those in control cultures or mice and plotted in GraphPad Prism.

[3] = tested on: HepG2 cells; test: Cytotoxicity by high content screening (HCS); assay type: cell-based
From the text: Based on the efficacy of DHCA/Mal-gluc in treating stress-induced depression, we initiated an in vitro toxicity and drug-like properties studies to investigate the potential of developing these two phytochemicals as novel therapies. […] At low concentrations, DHCA and Mal-gluc had no detectable effects on cell number, nuclear size, DNA structure, cell membrane permeability, mitochondrial mass, mitochondrial membrane potential or cytochrome C release in high content screening (HCS)[41] using HepG2 cells (Table 1). At high concentrations, Mal-gluc reduced cell number, increased nuclear size, […], and increased mitochondrial mass, with calculated EC50s beyond physiological concentration (Table 1).
MTT and LDH release assays were conducted in MSN-enriched primary neurons and in PBMCs[64]. Cellular cytotoxicity was conducted in HepG2 cells using high content screening (HCS) protocols. Briefly, HepG2 cells were plated on 384-well tissue culture treated black walled clear bottomed polystyrene plates and treated with varying concentrations of Mal-gluc or DHCA. The cells were loaded with the relevant dye/antibody for each cell-health marker following incubation, including cell count, markers for nuclear size, DNA structure, cell membrane permeability, mitochondrial mass, mitochondrial membrane potential and cytochrome C release. The plates were then scanned using an automated fluorescent cellular imager ArrayScanr (Thermo Scientific Cellomics).

| Compound | cytokine expression profile ([1]; PBMCs in the absence of LPS stimulation) | LPS-induced production of cytokines (GM-CSF, IL-1β, IL-12 p40 and p70, IL-17, MCP-1) ([1]; PBMCs with LPS stimulation) | expression of enzymes of de novo methylation and demethylation [2] | AC50 ([3]; DHCA ↑ (NS, fit not statistically significant), NR = No response observed, read-out: Cytotoxicity by HCS (AC50), Mitochondrial membrane potential) [µM] | AC50 ([3]; DHCA ↑, NR = No response observed, read-out: Cytotoxicity by HCS (AC50), Cytochrome C release) [µM] | AC50 ([3]; Malvidin-gluc ↑, NR = No response observed, read-out: Cytotoxicity by HCS (AC50), Mitochondrial mass) [µM] | AC50 ([3]; Malvidin-gluc ↑, NR = No response observed, read-out: Cytotoxicity by HCS (AC50), Nuclear size) [µM] | AC50 ([3]; Malvidin-gluc ↓, NR = No response observed, read-out: Cytotoxicity by HCS (AC50), Cell number) [µM] | AC50 ([3]; NR = No response observed, read-out: Cytotoxicity by HCS (AC50), DNA structure) [µM] | AC50 ([3]; both ↓, read-out: Cytotoxicity by HCS (AC50), Cell membrane permeability) [µM] |
| --- | --- | --- | --- | --- | --- | --- | --- | --- | --- | --- |
| O=C(O)CCc1ccc(O)c(O)c1 [DHCA, 3(3,4-dihydroxy-phenyl) propionic acid] | did not influence cytokine expression profile | significantly reduced LPS-induced production of cytokines | – | – | – | – | – | – | – | – |
| COc1cc(-c2[o+]c3cc(O)cc(O)c3cc2O[C@@H]2O[C@H](CO)[C@@H](O)[C@H](O)[C@H]2O)cc(OC)c1O [Mal-gluc] | – | – | did not affect | > 200 | > 200 | 176 | 88.4 | 176 | > 200 | 52.7 |

Reference: article PMC5797143, “Epigenetic modulation of inflammation and synaptic plasticity promotes resilience against stress in mice” (Nature Communications, 2018)
